# Measured values: patent US20020059032A1, “Rational selection of putative peptides from identified nucleotide or peptide sequences” (priority 1999, published 2002)
# Where a SMILES comes first, the peptide text is derived from it.
# Target: guinea pig brain membranes
# Test: Binding test with guinea pig brain membranes
# Conditions: tested on guinea pig brain membranes; read-out: IC50 = 100 μM
# Method: Binding Assay Alternative Protocol by Skatron
# The experimental conditions are identical for all the binding assay protocols except for the fact that: i) the volume R in operation is 200 μl; ii) the test carried out in 96-well Falcon plates iii) the reaction is directly stopped by filtration on filterMat (ref. 11734) Skatron and the radioactivity associated with the filtrate is evaluated: either directly with a γ counter for the peptides labelled with […]: or with a […] in the presence of 5 ml of scintillating liquid.
# Membrane Preparations of Guinea Pig Brains and Binding Assay
# The guinea pigs are sacrificed by rupturing their cervical vertibrae, decapitated, and the brains are removed very rapidly and placed into a sucrose-Tris-HCl buffer (0.32 M sucrose 5 mM, Tris-HCl, 0.1 g/l bacitracin) at 4° C. (about 10 ml of buffer per brain). The brains are then homogenized using a Potter device and the homogenate is placed in incubation for 30 minutes at 37° C. under agitation, then centrifuged twice for 35 minutes at 100,000×g at 4° C. The protein content of the membrane preparations is evaluated according to the Bradford method (BioRad, according to the manufacturers protocol).
# Bonding of Labelled Agonists to the Guinea Pig Brain Membrane Preparation The membranes are placed in a buffer (50 mM of Tris-HCl, 5 mM of MgCl2 and 0.1 g/l of bacitracin) at the desired protein concentration (iodized CCK bond, 0.1 mg of protein/ml; iodized gastrin bond: 0.5 mg of proteins/ml). They are then incubated in the presence of a labelled ligand in a total volume of 500 μl (about 10 pM for the iodized CCK8, 20 pM for the iodized gastrin13), 50-80 minutes at 25° C., and in the presence or absence of cold agonists. The reaction is stopped with 3 ml of additional BSA buffer (20 g/l) at 4° C., the tubes are centrifuged at 10,000×g, the supernatant is drawn off and the radioactivity associated with the precipitate is evaluated with a γ counter.
row,SMILES,IC50
1,"CC(C)C[C@H](NC(=O)[C@H](CCCCN)NC(=O)[C@H](CO)NC(=O)[C@@H](N)CCC(=O)O)C(=O)N[C@@H](CCC(=O)O)C(=O)N[C@@H](CCCNC(=N)N)C(=O)N[C@H](C(=O)N1CCC[C@H]1C(=O)N[C@@H](CCC(N)=O)C(=O)N[C@@H](CCCCN)C(=O)N[C@@H](CC(N)=O)C(=O)N[C@H](C(=O)N[C@@H](CCC(N)=O)C(N)=O)C(C)C)[C@@H](C)O [Example 41, H-ESKLERTPQKNVQ-NH2] (H-ESKLERTPQKNVQ-NH2)",250 nM
2,"CC(C)[C@H](NC(=O)[C@@H](NC(=O)[C@H](CCCCN)NC(=O)[C@@H]1CCCN1C(=O)[C@@H](NC(=O)[C@@H](NC(=O)[C@H](C)NC(=O)[C@H](CCCNC(=N)N)NC(=O)[C@@H]1CCCN1)[C@@H](C)O)[C@@H](C)O)[C@@H](C)O)C(=O)N[C@@H](CCCNC(=N)N)C(=O)N[C@@H](CO)C(N)=O [Example 42, H-PRATTPKTVRS-NH2] (H-PRATTPKTVRS-NH2)",560 nM
3,"CSCC[C@H](NC(=O)[C@H](CO)NC(=O)[C@H](CCSC)NC(=O)[C@H](CO)NC(=O)[C@H](CC(=O)O)NC(=O)[C@H](CCCCN)NC(=O)[C@H](CC(N)=O)NC(=O)[C@H](CCC(N)=O)NC(=O)[C@H](CCCNC(=N)N)NC(=O)[C@@H](NC(=O)[C@H](CCCCN)NC(=O)[C@@H](N)CCSC)[C@@H](C)O)C(=O)N[C@@H](CCCNC(=N)N)C(=O)N[C@@H](CO)C(N)=O [Example 43, H-MKTRQNKDSMSMRS-NH2] (H-MKTRQNKDSMSMRS-NH2)",50 nM
4,"CSCC[C@H](NC(=O)[C@H](CCCNC(=N)N)NC(=O)[C@@H](N)CCC(=O)O)C(=O)NCC(=O)N[C@@H](Cc1c[nH]cn1)C(=O)N[C@@H](Cc1c[nH]cn1)C(=O)N[C@@H](CC(=O)O)C(=O)N[C@@H](CC(=O)O)C(=O)N[C@@H](Cc1ccc(O)cc1)C(=O)N[C@@H](Cc1ccc(O)cc1)C(=O)N[C@@H](CO)C(=O)N[C@@H](CCCNC(=N)N)C(=O)N[C@@H](CC(C)C)C(=O)N[C@@H](CCCNC(=N)N)C(N)=O [Example 44, H-ERMGHHDDYYSRLR-NH2] (H-ERMGHHDDYYSRLR-NH2)",100 nM
5,"CC[C@H](C)[C@H](NC(=O)[C@H](Cc1ccccc1)NC(=O)[C@H](CCC(=O)O)NC(=O)[C@@H]1CCCN1C(=O)[C@H](Cc1ccc(O)cc1)NC(=O)[C@H](Cc1c[nH]cn1)NC(=O)[C@H](CCC(=O)O)NC(=O)[C@@H](NC(=O)[C@@H](N)CC(C)C)C(C)C)C(N)=O [Example 45, H-LVEHYPEFI-NH2] (H-LVEHYPEFI-NH2)",700 nM
6,"CSCC[C@H](NC(=O)[C@H](C)NC(=O)[C@H](CCCCN)NC(=O)[C@H](CC(N)=O)NC(=O)[C@H](C)NC(=O)[C@H](CCC(=O)O)NC(=O)[C@H](CCC(=O)O)NC(=O)[C@H](CCCCN)NC(=O)[C@H](C)NC(=O)[C@H](CC(=O)O)NC(=O)[C@H](CCC(N)=O)NC(=O)[C@H](CCC(=O)O)NC(=O)[C@H](C)NC(=O)[C@@H](N)Cc1ccccc1)C(N)=O [Example 48, H-FAEQDAKEEANKAM-NH2] (H-FAEQDAKEEANKAM-NH2)",1470 nM
7,"C[C@@H](O)[C@H](NC(=O)[C@@H](N)CCC(=O)O)C(=O)N[C@@H](CCCCN)C(=O)N[C@@H](Cc1c[nH]cn1)C(=O)NCC(=O)NCC(=O)N[C@@H](Cc1c[nH]cn1)C(=O)N[C@@H](CCCCN)C(=O)N[C@@H](CC(N)=O)C(N)=O [Example 49, H-ETKHGGHKN-NH2] (H-ETKHGGHKN-NH2)",330 nM
8,"CC(C)[C@H](NC(=O)[C@H](C)NC(=O)[C@@H](NC(=O)[C@@H](NC(=O)[C@H](C)NC(=O)[C@@H](NC(=O)[C@@H](N)CCC(N)=O)[C@@H](C)O)C(C)C)[C@@H](C)O)C(=O)N[C@@H](CCC(=O)O)C(=O)N[C@@H](CCCCN)C(=O)N1CCC[C@H]1C(=O)N[C@@H](C)C(=O)N[C@@H](CC(=O)O)C(=O)N[C@@H](CCCCN)C(N)=O [Example 57, H-QTAVTAVEKPADK-NH2] (H-QTAVTAVEKPADK-NH2)",60 nM

# The remaining lines, values ahead:
row,IC50,SMILES
1,130 nM,"CC[C@H](C)[C@H](NC(=O)[C@H](Cc1ccccc1)NC(=O)[C@H](C)NC(=O)[C@H](CCSC)NC(=O)[C@@H](NC(=O)[C@H](CCC(=O)O)NC(=O)[C@@H]1CCCN1C(=O)CNC(=O)[C@H](CCCCN)NC(=O)[C@@H](N)CCSC)C(C)C)C(=O)N[C@@H](CCC(=O)O)C(=O)N[C@@H](CCC(N)=O)C(N)=O [Example 40, H-MKGPEVMAFIEQ-NH2] (H-MKGPEVMAFIEQ-NH2)"
2,100 nM,"CC(C)C[C@H](NC(=O)CNC(=O)[C@H](CC(C)C)NC(=O)[C@H](CC(N)=O)NC(=O)[C@H](CCCNC(=N)N)NC(=O)[C@H](CC(C)C)NC(=O)[C@@H](NC(=O)[C@H](CO)NC(=O)[C@@H](NC(=O)[C@H](CO)NC(=O)[C@@H](N)Cc1ccccc1)C(C)C)[C@@H](C)O)C(N)=O [Example 46, H-FSVSTLRNLGL-NH2] (H-FSVSTLRNLGL-NH2)"
3,300 nM,"CC[C@H](C)[C@H](NC(=O)[C@H](CCCCN)NC(=O)[C@@H](NC(=O)[C@H](CC(C)C)NC(=O)[C@@H](NC(=O)CNC(=O)[C@@H](N)CO)[C@@H](C)O)[C@@H](C)CC)C(=O)N[C@@H](Cc1ccccc1)C(=O)N[C@@H](CCC(N)=O)C(=O)N[C@@H](C)C(=O)N[C@@H](CO)C(N)=O [Example 47, H-SGTLIKIFQAS-NH2] (H-SGTLIKIFQAS-NH2)"
4,1000 nM,"CC(C)C[C@H](NC(=O)[C@H](C)NC(=O)[C@H](CCC(=O)O)NC(=O)[C@H](CCC(N)=O)NC(=O)[C@@H](N)CC(C)C)C(=O)N[C@@H](CO)C(=O)N[C@@H](CCCCN)C(=O)N[C@@H](C)C(=O)N[C@@H](C)C(N)=O [Example 50, H-LQEALSKAA-NH2] (H-LQEALSKAA-NH2)"
5,140 nM,"CC(C)[C@H](NC(=O)[C@H](C)NC(=O)[C@@H](NC(=O)[C@H](Cc1c[nH]c2ccccc12)NC(=O)[C@@H]1CCCN1)[C@@H](C)O)C(=O)N[C@@H](CC(=O)O)C(=O)N[C@H](C(=O)N[C@@H](CO)C(=O)N[C@H](C(=O)N[C@@H](CC(=O)O)C(N)=O)C(C)C)[C@@H](C)O [Example 51, H-PWTAVDTSVD-NH2] (H-PWTAVDTSVD-NH2)"
6,7000 nM,"CC[C@H](C)[C@H](NC(=O)[C@H](C)NC(=O)[C@H](C)NC(=O)[C@@H](NC(=O)[C@H](CO)NC(=O)[C@H](C)NC(=O)[C@H](Cc1ccccc1)NC(=O)[C@H](Cc1ccc(O)cc1)NC(=O)[C@H](CCC(N)=O)NC(=O)[C@@H](NC(=O)[C@@H](N)C(C)C)[C@@H](C)CC)[C@@H](C)CC)C(=O)NCC(=O)N[C@@H](CC(=O)O)C(=O)N[C@@H](CCCNC(=N)N)C(N)=O [Example 52, H-VIQYFASIAAIGDR-NH2] (H-VIQYFASIAAIGDR-NH2)"
7,300 nM,"CC(C)C[C@H](NC(=O)[C@@H](N)CCC(N)=O)C(=O)N[C@@H](Cc1c[nH]c2ccccc12)C(=O)N[C@@H](CC(=O)O)C(=O)N[C@H](C(=O)N[C@@H](C)C(=O)N[C@@H](Cc1c[nH]cn1)C(=O)N[C@@H](CO)C(=O)N[C@H](C(=O)N[C@@H](CCCCN)C(=O)N[C@@H](CCC(=O)O)C(=O)N[C@@H](CCCCN)C(=O)N[C@@H](Cc1ccccc1)C(N)=O)C(C)C)C(C)C [Example 54, H-QLWDVAHSVKEKF-NH2] (H-QLWDVAHSVKEKF-NH2)"
8,730 nM,"CC[C@H](C)[C@H](NC(=O)[C@H](C)NC(=O)[C@@H](NC(=O)[C@H](CCC(=O)O)NC(=O)[C@H](CCC(=O)O)NC(=O)[C@@H](NC(=O)CNC(=O)[C@H](Cc1ccccc1)NC(=O)[C@@H](NC(=O)[C@H](CC(=O)O)NC(=O)[C@@H](N)[C@@H](C)O)[C@@H](C)CC)C(C)C)[C@@H](C)O)C(N)=O [Example 56, H-TDIFGVEETAI-NH2] (H-TDIFGVEETAI-NH2)"
